The structures appear in SMILES notation.

This series deals with Cynomolgus monkey. Description: Compound was evaluated for pseudo Hill coefficients (nH) in cynomolgus monkeys. Format: ADME, organism-based, Macaca fascicularis. The conditions noted are these: in vivo.
On to `C=CCN1C2CCC1C(C(=O)OC)[C@@H](c1ccc(F)cc1)C2` (stereo not given in full), for which the Hill coefficient was 0.65 nH.

`CCCN1C2CCC1C(C(=O)OC)[C@@H](c1ccc(F)cc1)C2` (stereo not given in full) showed a Hill coefficient of 0.7 nH.

In turn, `COC(=O)[C@H]1[C@@H](OC(=O)c2ccccc2)C[C@@H]2CC[C@H]1N2C` [COCAINE] returned a Hill coefficient of 0.54 nH.

`COC(=O)[C@H]1[C@@H](c2ccc(F)cc2)C[C@H]2CC[C@H]1N2C` displayed a Hill coefficient of 0.66 nH.

`COC(=O)C1C2CCC(C[C@@H]1c1ccc(F)cc1)N2` (stereo not given in full): the Hill coefficient is 0.64 nH.

For the origin of these results see ChEMBL document CHEMBL1125702 (J Med Chem, 1991).
